Patent publication US4689331A, “Substituted 2-pyridinyl benzimidazoles, and their use for inhibiting gastric acid secretion” (priority 1984, dated 1987)

Assays:
gastric acid secretion = test: Inhibiting effect in vivo on gastric acid secretion in conscious dog; details: conscious chronic gastric fistula dog, oral by stomach tube, histamine-induced secretion, 1 h after dosing, peak inhibitory effect
Description: II. Inhibiting effect in vivo on gastric acid secretion in conscious dog
Chronic gastric fistula dogs were used. These dogs have been surgically provided with a gastric cannula in the stomach and a duodenal fistula used for direct intraduodenal administration of test compounds. Following a 4 week's recovery period after surgery, tests were performed once a week on each dog. Food and water were withdrawn 18 hours before each test.
The test compound dissolved in 5% ethanol in 0.5% Methocel® (90 HG, 15.000, Dow Chem Corp.) was administered orally by using a stomach tube. After 1 hour gastric acid secretion was induced by continuous infusion of histamine at individual doses (400-600 nmol/kg, h), resulting in approx. 90% of maximal secretion of gastric acid. The gastric juice was collected by free flow from the gastric cannula in consecutive 30 minutes samples for 2 hours. The samples were titrated to pH 7.0 with 0.1M NaOH using a Radiometer automatic titrator and the acid output was calculated. The percent inhibition of acid secretion was calculated by comparing in each dog the acid output in the test to the acid output in control tests when only the vehicle was given. The peak inhibitory effect for each compound was determined.

[1] = tested on: ethanol-induced gastric lesions; test: In vivo cytoprotective effect: effect on ethanol-induced gastric lesions in the rat; set-up: species or system rat (female Spraque-Dawley); details: oral, 30 min before 1 ml absolute ethanol, dose giving 50% reduction of total lesion length vs control (11.0 cm); for ED50: Rattus norvegicus, read-out: III Rat Cytoprot. ED50
Description: III. In vivo cytoprotective effect: Effect on ethanol-induced gastric lesions in the rat
Two groups of female Spraque-Dawley rats (190-220 g) were used, one for the test compound and one for the control experiment. Food, but not water, was removed 24 h before the experiments.
The animals in the test group were treated orally with the test compound dissolved in 10% ethanol in 0.5% Methocel® immediately before use and the animals in the control group were given the vehicle only in a dose of 2.5 ml/kg.
Thirty minutes later the rats were given orally 1 ml of absolute ethanol (a standard agent for inducing gastric mucosal lesions).
Sixty minutes later the rats were killed by carbon dioxide asphyxiation, their stomachs dissected out and the gastric mucosae were examined for the presence of necrotic lesions. The total lengths of the lesions in the stomachs were measured in the test group and in the control group, in both cases treated thirty minutes before with ethanol.
The ED50 -value represents the dose of the compound giving 50% reduction of the total lengths of lesions compared to the total lengths of lesions of the control experiment (11.0 cm).

gastric H^+,K^+ -ATPase = target: T1, gastric H^+,K^+ -ATPase (Sus scrofa, UniProt P19156); test: In vitro inhibition of gastric H+,K+-ATPase; format: biochemical; details: hog gastric membrane, pH 7.4, 30 min incubation, negative log of concentration (M) giving 50% inhibition
T1 construct: from tissue; host or cells: hog stomach, purified membrane fraction (GI fraction of Saccomani et al. 1977)
Description: I. In vitro inhibition of gastric H^+,K^+ -ATPase
Hog gastric H^+,K^+ -ATPase was purified according to Saccomani et al., Biochim. Biophys. Acta 465, 311-330, 1977. 10 μg of membrane protein (GI-fraction in the reference listed above) was incubated with 2 mmol/l of piperazine-N,N'bis-(2-ethane sulfonic acid) buffer pH 7.4 and the test compound in concentrations 10^-7 -10^-4 M in a final volume of 1 ml. (The test compound was dissolved in methanol. Aliquots of these stock solutions were diluted to a final methanol concentration below 1%, which on its own had no effect on the enzyme activities.) After 30 minutes of incubation, the remaining H^+,K^+ -ATPase activity was determined, according to Wallmark et al., Biochim. Biophys. Acta, 728, 31-38, 1983. A dose-response curve was constructed and the concentration at half-maximal inhibition (IC50) could be determined.
pIC50 is the negative logarithm of the concentration (in M) of the test compound giving 50% inhibition.

T1 sequence (P19156 2-1034 limits assumed): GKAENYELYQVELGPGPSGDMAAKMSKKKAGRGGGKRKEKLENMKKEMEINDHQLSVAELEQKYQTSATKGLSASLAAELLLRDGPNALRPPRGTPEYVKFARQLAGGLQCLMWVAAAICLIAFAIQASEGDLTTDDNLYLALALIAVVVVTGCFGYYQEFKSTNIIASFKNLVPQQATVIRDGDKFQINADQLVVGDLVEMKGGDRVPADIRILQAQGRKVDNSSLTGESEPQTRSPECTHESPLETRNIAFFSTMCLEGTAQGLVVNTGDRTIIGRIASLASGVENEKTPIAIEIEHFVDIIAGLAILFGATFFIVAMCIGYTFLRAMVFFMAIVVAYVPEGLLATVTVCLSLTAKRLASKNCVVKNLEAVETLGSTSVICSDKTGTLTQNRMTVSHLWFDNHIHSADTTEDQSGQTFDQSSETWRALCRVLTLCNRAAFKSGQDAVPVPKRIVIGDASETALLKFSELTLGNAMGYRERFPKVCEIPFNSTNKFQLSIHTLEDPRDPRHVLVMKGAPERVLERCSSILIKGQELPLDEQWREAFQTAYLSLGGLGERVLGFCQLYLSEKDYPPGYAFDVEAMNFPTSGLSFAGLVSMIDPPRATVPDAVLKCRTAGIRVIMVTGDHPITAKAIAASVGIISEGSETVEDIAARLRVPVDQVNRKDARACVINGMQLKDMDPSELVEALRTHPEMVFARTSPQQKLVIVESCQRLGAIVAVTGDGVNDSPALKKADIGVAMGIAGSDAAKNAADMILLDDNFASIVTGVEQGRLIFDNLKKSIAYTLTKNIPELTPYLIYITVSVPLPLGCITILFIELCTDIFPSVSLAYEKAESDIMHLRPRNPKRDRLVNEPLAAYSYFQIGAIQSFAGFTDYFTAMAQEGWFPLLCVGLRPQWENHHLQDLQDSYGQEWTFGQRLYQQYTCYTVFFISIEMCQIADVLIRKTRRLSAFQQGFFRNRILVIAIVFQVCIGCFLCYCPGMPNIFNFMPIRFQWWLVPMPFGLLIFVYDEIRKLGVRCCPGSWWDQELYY
T1 sequence (P18434 whole entry partner): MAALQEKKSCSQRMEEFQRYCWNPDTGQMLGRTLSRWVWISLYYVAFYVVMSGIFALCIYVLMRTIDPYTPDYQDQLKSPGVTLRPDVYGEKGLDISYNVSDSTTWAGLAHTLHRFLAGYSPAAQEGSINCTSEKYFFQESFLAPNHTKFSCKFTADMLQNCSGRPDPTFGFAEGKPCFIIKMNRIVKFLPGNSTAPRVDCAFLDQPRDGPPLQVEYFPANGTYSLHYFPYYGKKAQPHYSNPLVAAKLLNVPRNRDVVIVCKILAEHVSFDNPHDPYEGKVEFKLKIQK

IC50 (gastric H^+,K^+ -ATPase; read-out: I Enzyme pIC50 (converted)) [M]	I Enzyme pIC50 (gastric H^+,K^+ -ATPase)	SMILES	ED50 (gastric acid secretion; Canis lupus familiaris, read-out: II Dog Gast. acid secr. inhib. ED50) [µmol/kg]	ED50 [1] [µmol/kg]	II Dog Gast. acid secr. inhib. ED50 (gastric acid secretion) [µmol/kg]	III Rat Cytoprot. ED50 [1] [µmol/kg]
		COc1c(C)c[n+](-c2nc3ccccc3[n-]2)c(CSC#N)c1C [Example 14]	9	20		
3.16e-05		COc1ccc2[n-]c(-[n+]3cc(C)c(OC)c(C)c3CSSCC(=O)O)nc2c1 [Example 7]		30		
	5.0	COc1ccc2[nH]c(-[n+]3cc(C)c(OC)c(C)c3CSSCCO)nc2c1.[O-][Cl+3]([O-])([O-])[O-] [Example 1, 3,5-dimethyl-4-methoxy-2-[(2-hydroxyethyl)dithiomethyl]-1-(5-methoxy-2-benzimidazolyl)-pyridiniumperchlorate]			6	15
